Experimental data from BigSolDB 2.1.

C[C@]12C=CC(=O)C=C1CC[C@@H]1[C@@H]2[C@@H](O)C[C@@]2(C)[C@H]1CC[C@]2(O)C(=O)CO
solubility (mole fraction)
Details | in DMF | in NMP | in acetonitrile | in n-dodecane | in n-hexadecane | in n-nonanol | in n-octanol | in n-pentanol | in sec-butanol | in water
293.2 K | 0.00818 | 0.00465 | 0.00219 | 1.44e-05 | 2.15e-05 | 0.000507 | 0.000316 | 0.000283 | 0.000248 | 1.05e-05
298.2 K | 0.00869 | 0.00525 | 0.00236 | 1.64e-05 | 2.35e-05 | 0.000643 | 0.000419 | 0.000358 | 0.000294 | 1.1e-05
303.2 K | 0.00943 | 0.0061 | 0.00255 | 1.87e-05 | 2.61e-05 | 0.000833 | 0.000568 | 0.000449 | 0.000362 | 1.25e-05
308.2 K | 0.0101 | 0.00688 | 0.0028 | 2.16e-05 | 3.01e-05 | 0.000999 | 0.000712 | 0.000559 | 0.000444 | 1.4e-05
313.2 K | 0.0108 | 0.00784 | 0.00305 | 2.45e-05 | 3.4e-05 | 0.00126 | 0.000913 | 0.000699 | 0.00053 | 1.6e-05
318.2 K | 0.0116 | 0.00881 | 0.00334 | 2.79e-05 | 3.88e-05 | 0.00151 | 0.00114 | 0.000881 | 0.000628 | 1.8e-05
323.2 K | 0.0125 | 0.00998 | 0.00364 | 3.28e-05 | 4.5e-05 | 0.00179 | 0.00141 | 0.0011 | 0.00075 | 2e-05
328.2 K | 0.0141 | 0.0114 | 0.00407 | 3.82e-05 | 5.41e-05 | 0.00215 | 0.0018 | 0.00139 | 0.000905 | 2.6e-05
